Our source for the Ki values is patent US20050209278A1, “Piperidinyl- and piperazinyl-sulfonylmethyl hydroxamic acids and their use as protease inhibitors” (priority 2002, published 2005).

Molecules are shown by their SMILES. pKi: −log10 of the molar value. Values joined by “and” are separate entries in the source; they are usually repeats but may differ in a detail not shown here. Equal entries are not always repeated.

For one test, the target named is T1, MMP-2 (Homo sapiens, UniProt P08253).
T1 construct: made in house; host or cells: MMP-2-transfected p2AHT2 cells
T1 sequence (P08253 110-660): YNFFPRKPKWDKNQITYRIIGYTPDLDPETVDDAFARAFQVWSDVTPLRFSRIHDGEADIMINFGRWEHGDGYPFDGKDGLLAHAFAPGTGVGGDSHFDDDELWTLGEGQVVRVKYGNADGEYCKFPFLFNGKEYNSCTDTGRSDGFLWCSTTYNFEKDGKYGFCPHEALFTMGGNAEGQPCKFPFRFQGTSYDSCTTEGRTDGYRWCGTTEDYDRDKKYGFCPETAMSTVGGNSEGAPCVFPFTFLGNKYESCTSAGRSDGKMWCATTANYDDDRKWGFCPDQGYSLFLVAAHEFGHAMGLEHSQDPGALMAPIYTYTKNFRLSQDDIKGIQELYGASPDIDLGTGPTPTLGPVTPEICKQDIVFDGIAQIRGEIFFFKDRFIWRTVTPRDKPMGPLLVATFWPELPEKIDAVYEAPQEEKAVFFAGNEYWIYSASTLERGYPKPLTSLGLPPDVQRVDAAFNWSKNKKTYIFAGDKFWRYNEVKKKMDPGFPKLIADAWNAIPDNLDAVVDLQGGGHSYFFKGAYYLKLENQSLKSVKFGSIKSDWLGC
The test can be described thus: In vitro MMP inhibition, Ki determination (fluorogenic substrate II). The test is classed as biochemical. To be noted: value outside parentheses; read-out: MMP-2 Ki.

A further test deals with T2, MMP-13 (Homo sapiens, UniProt P45452).
T2 construct: made in house; host or cells: baculovirus / insect cells
Described as above. Format: biochemical. To be noted: value outside parentheses; read-out: MMP-13 Ki. Summed up: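 Ki determined with human recombinant MMP-13, baculovirus-expressed as proenzyme and activated with APMA. Fluorogenic MCA/Dpa substrate II at 4 μM (at or below Km) with low enzyme in Tris buffer pH 7.5 with CaCl2. Incubation was 1 h at room temperature, with fluorescence read at 330/420 nm.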

Broadly, the pKi is the negative decadic logarithm of the Ki, by convention in mol/L. Consider `O=C(NO)C1(S(=O)(=O)N2CCN(c3ncc(-c4ccc(OC(F)(F)F)cc4)s3)CC2)CCOCC1` [Example 364], for which the figures for the pKi at MMP-2 and on MMP-13 were 9.73 and 9.97, respectively.
Regarding `O=C(NO)C1(S(=O)(=O)N2CCN(c3ncc(-c4cccc(-c5ccccc5)c4)s3)CC2)CCOCC1` [Example 365], the pKi at MMP-2 is 6.70; at MMP-13, 7.00.
For `CC(C)c1ccc(-c2cnc(N3CCN(S(=O)(=O)C4(C(=O)NO)CCOCC4)CC3)s2)cc1` [Example 366] the same measures were 9.58 and 9.74.
Take `O=C(NO)C1(S(=O)(=O)N2CCC(c3ccc(CCC(F)(F)F)cn3)CC2)CCOCC1` [Example 367]: the pKi is 9.01 on MMP-2 and 9.08 on MMP-13.
The like results for `O=C(NO)C1(S(=O)(=O)N2CCN(c3ncc(-c4ccc(O)cc4)s3)CC2)CCOCC1` [Example 368] were, in that order, 9.65 and 9.48.
For the compound `O=C(NO)C1(S(=O)(=O)N2CCN(c3ncc(-c4ccc(Cl)c(Cl)c4)s3)CC2)CCOCC1` [Example 369], the pKi is 9.06 on MMP-2 and 8.87 on MMP-13.
For the compound `Cc1cccc(-c2cnc(N3CCN(S(=O)(=O)C4(C(=O)NO)CCOCC4)CC3)s2)c1` [Example 370], the figures for the pKi at MMP-2 and at MMP-13 were 8.87 and 8.38, respectively.
For `COc1ccc(-c2cnc(N3CCN(S(=O)(=O)C4(C(=O)NO)CCOCC4)CC3)s2)cc1OC` [Example 371] the same measures were 8.38 and 8.87.
As to `O=C(NO)C1(S(=O)(=O)N2CCN(c3ccc(-c4ccccc4)cn3)CC2)CCOCC1` [Example 372], the pKi at MMP-2 is 9.35 and 9.32; on MMP-13, 9.31 and 9.18.
Turning to `O=C(NO)C1(S(=O)(=O)N2CCC(COCc3ccccc3)CC2)CCOCC1` [Example 373], the pKi is 8.21 on MMP-2 and 8.47 on MMP-13.
`CCC=C1CCN(S(=O)(=O)C2(C(=O)NO)CCOCC2)CC1` [Example 374]: the results for the pKi on MMP-2 and on MMP-13 were 7.73 and 8.24, respectively.
For `O=C(NO)C1(S(=O)(=O)N2CCC(COCC(F)(F)C(F)F)CC2)CCOCC1` [Example 375] the same measures were 7.36 and 6.29.
Turning to `O=C(NO)C1(S(=O)(=O)N2CCC(COCC(F)(F)C(F)(F)F)CC2)CCOCC1` [Example 376], the pKi at MMP-2 was 7.57; on MMP-13 it was 7.51.
The like results for `O=C(NO)C1(S(=O)(=O)N2CCC(COCC(F)(F)C(F)(F)C(F)(F)F)CC2)CCOCC1` [Example 377] were, in that order, 7.43 and 7.06.
For `O=C(NO)C1(S(=O)(=O)N2CCC(COCC(F)(F)C(F)(F)C(F)(F)C(F)F)CC2)CCOCC1` [Example 378], the pKi on MMP-2 was 7.61; on MMP-13 it was 7.32.
The like results for `CCCCc1ccc(-c2cnc(N3CCN(S(=O)(=O)C4(C(=O)NO)CCOCC4)CC3)s2)cc1` [Example 379] were, in that order, 9.85 and 9.78.
For `CCCCCc1ccc(-c2cnc(N3CCN(S(=O)(=O)C4(C(=O)NO)CCOCC4)CC3)s2)cc1` [Example 380] the same measures were 8.86 and 9.19.
The like results for `CCc1ccc(-c2cnc(N3CCN(S(=O)(=O)C4(C(=O)NO)CCOCC4)CC3)s2)cc1` [Example 381] were, in that order, 9.68 and 10.13.
`O=C(NO)C1(S(=O)(=O)N2CCN(c3ncc(-c4cccnc4)s3)CC2)CCOCC1` [Example 382]: the values for the pKi at MMP-2 and at MMP-13 were 9.17 and 9.19, respectively.
Take `NC(=O)c1ccccc1-c1cnc(N2CCN(S(=O)(=O)C3(C(=O)NO)CCOCC3)CC2)s1` [Example 383]: the pKi is 5.91 at MMP-2 and 6.98 on MMP-13.
The like results for `N#Cc1cccc(-c2cnc(N3CCN(S(=O)(=O)C4(C(=O)NO)CCOCC4)CC3)s2)c1` [Example 384] were, in that order, 9.73 and 9.57.
For `O=C(NO)C1(S(=O)(=O)N2CCC(c3ccc(OCC(F)(F)C(F)F)cc3)CC2)CCN(CCN2CCOCC2)CC1` [Example 385] the same measures were 9.24 and 9.42.
For the compound `O=C(NO)C1(S(=O)(=O)N2CCN(c3ccc(CCCC(F)(F)F)cc3F)CC2)CCOCC1` [Example 386], the pKi on MMP-2 was 8.31; at MMP-13, 8.64.
Take `O=C(NO)C1(S(=O)(=O)N2CCN(c3ncc(-c4ccccn4)s3)CC2)CCOCC1` [Example 387]: the pKi is 8.17 on MMP-2 and 7.51 on MMP-13.
For `CCCCc1ccc(C2CCN(S(=O)(=O)C3(C(=O)NO)CCNCC3)CC2)nc1` [Example 388] the same measures were 7.95 and 7.82.
The like results for `O=C(NO)C1(S(=O)(=O)N2CCN(c3ccc(CCCC(F)(F)F)c(F)c3)CC2)CCOCC1` [Example 389] were, in that order, 9.42 and 9.33.
For `O=C(NO)C1(S(=O)(=O)N2CCC(c3ccc(-c4cccnc4)cn3)CC2)CCOCC1` [Example 390] the same measures were 7.91 and 8.17.
Take `O=C(NO)C1(S(=O)(=O)N2CCC(c3ccc(-c4ccccc4)cn3)CC2)CCOCC1` [Example 392]: the pKi at MMP-2 was 8.40; at MMP-13 it was 8.37.
As to `O=C(NO)C1(S(=O)(=O)N2CCC(c3ccc(-c4cccs4)cn3)CC2)CCOCC1` [Example 394], the pKi was 8.74 on MMP-2 and 8.76 at MMP-13.
For `O=C(NO)C1(S(=O)(=O)N2CCC(c3ccc(-c4ccc(C(F)(F)F)cc4)cn3)CC2)CCOCC1` [Example 395] the same measures were 8.14 and 9.05.
The like results for `CCCCc1ccc(C2CCN(S(=O)(=O)C3(C(=O)NO)CCN(CC)CC3)CC2)nc1` [Example 396] were, in that order, 8.63 and 8.66.
